In patent US7919493B2, “Anititumoral ecteinascidin derivatives” (Pharma Mar, S.A., priority 2001, dated 2011):
≈ marks a conversion by molar mass, not a printed value.

Experiments:
Type in all cases: cell-based
[1] = tested on: A-549 (monolayer culture of a human lung carcinoma); experiment: Cytotoxic activity screening, A-549 cells; settings: Homo sapiens, A549, 72 h, three days of incubation, Crystal Violet, approximate IC50
Protocol: (§1) Cell Cultures. Cells were maintained in logarithmic phase of growth in Eagle's Minimum Essential Medium, with Earle's Balanced Salts, with 2.0 mM L-glutamine, with non-essential amino acids, without sodium bicarbonate (EMEM/neaa); supplemented with 10% Fetal Calf Serum (FCS), 10^−2 M sodium bicarbonate and 0.1 g/l penicillin-G+streptomycin sulfate.
(§2) A separate set of cultures without drug was seeded as control growth to ensure that cells remained in exponential phase of growth. All determinations were carried out in duplicate. After three days of incubation at 37° C., 10% CO2 in a 98% humid atmosphere, the wells were stained with 0.1% Crystal Violet. An approximately IC50 was determined by comparing the growth in wells with drug to the growth in wells control.

[2] = tested on: P-388 (suspension culture of a lymphoid neoplasm from DBA/2 mouse); experiment: Cytotoxic activity screening, P-388 cells; settings: Mus musculus, P388, 72 h, three days of incubation, approximate IC50 vs control growth
Protocol: as §1
(§3) A simple screening procedure has been carried out to determine and compare the antitumour activity of these compounds, using an adapted form of the method described by Bergeron et al (1984). The tumour cell line employed have been P-388 (suspension culture of a lymphoid neoplasm from DBA/2 mouse), A-549 (monolayer culture of a human lung carcinoma), HT-29 (monolayer culture of a human colon carcinoma) and MEL-28 (monolayer culture of a human melanoma).
P-388 cell were seeded into 16 mm wells at 1×10^4 cells per well in 1 ml aliquots of MEM 5FCS containing the indicated concentration of drug. A separate set of cultures without drug was seeded as control growth to ensure that cells remained in exponential phase of growth. All determinations were carried out in duplicate.

DU-145 = experiment: Cytotoxic activity screening, DU-145 cells; settings: Homo sapiens, DU-145, DU-145 cells
Protocol: [The source words this procedure for another cell line and reports this cell line under the same test.] as §1, §3
Examples of biological activities of the compounds described in the present application are in Table IV (IC50 (ng/mL)) on the following pages.

[3] = tested on: HT-29 (monolayer culture of a human colon carcinoma); experiment: Cytotoxic activity screening, HT-29 cells; settings: Homo sapiens, HT-29, 72 h, three days of incubation, Crystal Violet, approximate IC50
Protocol: as §1, §2

[4] = tested on: MEL-28 (monolayer culture of a human melanoma); experiment: Cytotoxic activity screening, MEL-28 cells; settings: Homo sapiens, SK-MEL-28, 72 h, three days of incubation, Crystal Violet, approximate IC50
Protocol: as §1, §3
as §2, with “A-549, HT-29 and MEL-28 were seeded into 16 mm wells at 2×10^4 cells per well in 1 ml aliquots of MEM 10FCS containing the indicated concentration of drug. A separate” for “A separate”

SMILES: COc1c(C)cc2c(c1O)[C@@H]1C3[C@@H]4SC[C@H](NC(=O)CCC(=O)O)C(=O)OC[C@@H](c5c6c(c(C)c(OC(C)=O)c54)OCO6)N3[C@@H](C#N)[C@H](C2)N1C (stereo partly shown) [Compound 3l]
- IC50 [1]: 100 ng/mL (≈ 138 nM)
- IC50 [2]: 100 ng/mL (≈ 138 nM)
- IC50 (DU-145): 100 ng/mL (≈ 138 nM)
- IC50 [3]: 100 ng/mL (≈ 138 nM)
- IC50 [4]: 100 ng/mL (≈ 138 nM)

SMILES: COc1c(C)cc2c(c1O)[C@@H]1C3[C@@H]4SC[C@H](N(C)C)C(=O)OC[C@@H](c5c6c(c(C)c(OC(C)=O)c54)OCO6)N3[C@@H](C#N)[C@H](C2)N1C (stereo partly shown) [Compound 3m]
- IC50 [1]: 10 ng/mL (≈ 15.4 nM)
- IC50 [2]: 10 ng/mL (≈ 15.4 nM)
- IC50 (DU-145): 10 ng/mL (≈ 15.4 nM)
- IC50 [3]: 10 ng/mL (≈ 15.4 nM)
- IC50 [4]: 10 ng/mL (≈ 15.4 nM)

SMILES: COc1c(C)cc2c(c1O)[C@@H]1C3[C@@H]4SCC(NCc5ccccc5)C(=O)OC[C@@H](c5c6c(c(C)c(OC(C)=O)c54)OCO6)N3[C@@H](C#N)[C@H](C2)N1C (stereo partly shown) [Compound 3n]
- IC50 [1]: 0.5 ng/mL (≈ 0.701 nM)
- IC50 [2]: 0.5 ng/mL (≈ 0.701 nM)
- IC50 (DU-145): 0.5 ng/mL (≈ 0.701 nM)
- IC50 [3]: 0.5 ng/mL (≈ 0.701 nM)
- IC50 [4]: 0.5 ng/mL (≈ 0.701 nM)

SMILES: CCCN[C@H]1CS[C@@H]2c3c(OC(C)=O)c(C)c4c(c3[C@H](COC1=O)N1C2[C@H]2c3c(cc(C)c(OC)c3O)C[C@@H]([C@@H]1C#N)N2C)OCO4 (stereo partly shown) [Compound 3o]
- IC50 [1]: 5 ng/mL (≈ 7.52 nM)
- IC50 [3]: 5 ng/mL (≈ 7.52 nM)

SMILES: COc1c(C)cc2c(c1O)[C@@H]1C3[C@@H]4SC[C@H](NC(=O)C(N)C(C)C)C(=O)OC[C@@H](c5c6c(c(C)c(OC(C)=O)c54)OCO6)N3[C@@H](C#N)[C@H](C2)N1C (stereo partly shown) [Compound 3p]
- IC50 [1]: 1 ng/mL (≈ 1.39 nM)
- IC50 [2]: 1 ng/mL (≈ 1.39 nM)
- IC50 (DU-145): 1 ng/mL (≈ 1.39 nM)
- IC50 [3]: 1 ng/mL (≈ 1.39 nM)
- IC50 [4]: 1 ng/mL (≈ 1.39 nM)

SMILES: COc1c(C)cc2c(c1O)[C@@H]1C3[C@@H]4SC[C@H](NC(=O)C(NC(C)=O)C(C)C)C(=O)OC[C@@H](c5c6c(c(C)c(OC(C)=O)c54)OCO6)N3[C@@H](C#N)[C@H](C2)N1C (stereo partly shown) [Compound 3q]
- IC50 [1]: 1 ng/mL (≈ 1.31 nM)
- IC50 [2]: 1 ng/mL (≈ 1.31 nM)
- IC50 (DU-145): 1 ng/mL (≈ 1.31 nM)
- IC50 [3]: 1 ng/mL (≈ 1.31 nM)
- IC50 [4]: 1 ng/mL (≈ 1.31 nM)

SMILES: CCCN[C@H]1CS[C@@H]2c3c(OC(C)=O)c(C)c4c(c3[C@H](COC1=O)N1C2[C@H]2c3c(cc(C)c(OC)c3O)C[C@@H]([C@@H]1O)N2C)OCO4 (stereo partly shown) [Compound 4o]
- IC50 [1]: 1 ng/mL (≈ 1.52 nM)
- IC50 [3]: 1 ng/mL (≈ 1.52 nM)

SMILES: COc1c(C)cc2c(c1O)[C@@H]1C3[C@@H]4SC[C@@H](O)C(=O)OC[C@@H](c5c6c(c(C)c(OC(C)=O)c54)OCO6)N3[C@@H](C#N)[C@H](C2)N1C (stereo partly shown) [Compound 16*]
- IC50 [1]: 10 ng/mL (≈ 16 nM)
- IC50 [3]: 10 ng/mL (≈ 16 nM)

SMILES: COc1c(C)cc2c(c1O)[C@@H]1C3[C@@H]4SC[C@H](OS(C)(=O)=O)C(=O)OC[C@@H](c5c6c(c(C)c(OC(C)=O)c54)OCO6)N3[C@@H](C#N)[C@H](C2)N1C (stereo partly shown) [Compound 17ll]
- IC50 [1]: 1 ng/mL (≈ 1.42 nM)
- IC50 [2]: 1 ng/mL (≈ 1.42 nM)
- IC50 [3]: 1 ng/mL (≈ 1.42 nM)
- IC50 [4]: 1 ng/mL (≈ 1.42 nM)

SMILES: CCCCCCCCCCCCCCCC(=O)O[C@H]1CS[C@@H]2c3c(OC(C)=O)c(C)c4c(c3[C@H](COC1=O)N1C2[C@H]2c3c(cc(C)c(OC)c3O)C[C@@H]([C@@H]1O)N2C)OCO4 (stereo partly shown) [Compound 21f]
- IC50 [1]: > 1000 ng/mL
- IC50 [3]: > 1000 ng/mL

SMILES: CC(=O)Oc1c(C)c2c(c3c1[C@H]1SC[C@H](N)C(=O)OC[C@@H]3N3C1[C@H]1c4c(cc(C)c(O)c4O)C[C@@H]([C@@H]3C#N)N1C)OCO2 (stereo partly shown) [Compound 24]
- IC50 [1]: 100 ng/mL (≈ 164 nM)
- IC50 [3]: 100 ng/mL (≈ 164 nM)

SMILES: COc1c(C)cc2c(c1O)[C@@H]1C3[C@@H]4SC[C@@H](NC(C)=O)C(=O)OC[C@@H](c5c6c(c(C)c(O)c54)OCO6)N3[C@@H](C#N)[C@H](C2)N1C (stereo partly shown) [Compound 25]
- IC50 [1]: 10 ng/mL (≈ 16.1 nM)
- IC50 [3]: 10 ng/mL (≈ 16.1 nM)

SMILES: CC(=O)N[C@@H]1CS[C@@H]2c3c(OC(C)=O)c(C)c4c(c3[C@H](COC1=O)N1C2[C@H]2c3c(cc(C)c(O)c3O)C[C@@H]([C@@H]1C#N)N2C)OCO4 (stereo partly shown) [Compound 26]
- IC50 [1]: 100 ng/mL (≈ 154 nM)
- IC50 [3]: 100 ng/mL (≈ 154 nM)
